Laboratory results taken from article PMC9598311, “Identification of a Small Molecule That Inhibits the Interaction of LPS Transporters LptA and LptC” (Antibiotics, 2022).

T1: LptC (Escherichia coli, UniProt P0ADV9)
T1 construct: synthetic gene in pET-28a, N-terminal 6-His tag, expressed in E. coli BL21(DE3), His-Trap purified
T1 sequence (P0ADV9 1-191): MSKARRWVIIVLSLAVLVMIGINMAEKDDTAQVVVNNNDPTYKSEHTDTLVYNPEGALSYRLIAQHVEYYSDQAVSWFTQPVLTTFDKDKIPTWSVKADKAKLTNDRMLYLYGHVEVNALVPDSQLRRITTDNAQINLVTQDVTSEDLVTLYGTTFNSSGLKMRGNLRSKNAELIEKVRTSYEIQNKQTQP

T2: LptA (Escherichia coli, UniProt P0ADV1)
T2 construct: synthetic gene in pET-28a, N-terminal 6-His tag, expressed in E. coli BL21(DE3), His-Trap purified
T2 sequence (P0ADV1 28-185): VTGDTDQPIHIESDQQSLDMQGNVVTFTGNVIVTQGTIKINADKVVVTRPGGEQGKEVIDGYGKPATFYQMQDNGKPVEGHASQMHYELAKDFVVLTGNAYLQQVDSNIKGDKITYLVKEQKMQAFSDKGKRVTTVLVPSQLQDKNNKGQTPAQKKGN

T3: LptC protein with a 6-His tag at the N-terminal (Escherichia coli) (UniProt P0ADV9)
T3 sequence (P0ADV9 whole entry, looked up): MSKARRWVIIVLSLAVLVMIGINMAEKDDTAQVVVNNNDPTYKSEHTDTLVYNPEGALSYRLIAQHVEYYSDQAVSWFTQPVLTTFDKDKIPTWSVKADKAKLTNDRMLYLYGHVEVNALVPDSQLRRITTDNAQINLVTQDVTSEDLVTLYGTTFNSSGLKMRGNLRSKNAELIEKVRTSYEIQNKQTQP


Columns and labels:
[1] = target: T1, LptC; assay: SPR, LptC immobilized on carboxymethyl dextran chip; format: binding
Source text: SPR, LptC immobilized on carboxymethyl dextran chip on LptC

[2] = target: T2, LptA; assay: SPR, LptA immobilized on carboxymethyl dextran chip; format: binding
Source text: SPR, LptA immobilized on carboxymethyl dextran chip on LptA

[3] = tested on: T4, LptA/LptC; assay: SPR, LptA preincubated with compound passed over immobilized LptC; format: binding, Escherichia coli; details: inhibition of LptA/LptC protein-protein interaction; LptA 15 ug/mL, compound 0-4 ug/mL, PBST
T4 construct: complex formed on chip: LptC immobilized, LptA in solution; both N-terminal 6-His tagged, expressed in E. coli BL21(DE3)

[4] = target: T3, LptC protein with a 6-His tag at the N-terminal (Escherichia coli); assay: SPR; Reichert SPR system; LptC immobilised on a mixed self-assembled monolayer (SAM) sensor chip; LptA 0.164 µM to 2.624 µM in PBST (0.01 M Na Phosphate, 0.15 M NaCl, 0.05% Tween 20) passed over; regeneration 1 M NaCl 90 s; TraceDrawer 1.7.1

Kd [1] [µM] | Kd [2] [µM] | Kd [4] [µM] | koff [4] [s⁻¹] | kon [4] [M⁻¹ s⁻¹] | Molecule | SPR, LptA preincubated with compound passed over immobilized LptC [3]
32.6 | 4.67 | – | – | – | CN(C)c1ccc(/C=C/c2cc(C(C)(C)C)[o+]c(C(C)(C)C)c2)cc1 [IMB-0042] | Compound IMB-0042 blocked LptA/LptC interaction.
– | – | 2.28 | 0.385 | 169000 | LptA protein with a 6-His tag at the N-terminal (natural protein) VTGDTDQPIHIESDQQSLDMQGNVVTFTGNVIVTQGTIKINADKVVVTRPGGEQGKEVIDGYGKPATFYQMQDNGKPVEGHASQMHYELAKDFVVLTGNAYLQQVDSNIKGDKITYLVKEQKMQAFSDKGKRVTTVLVPSQLQDKNNKGQTPAQKKGN | –
